Data published in ChEMBL document CHEMBL4340562, “Discovery of novel pyridazine derivatives as glucose transporter type 4 (GLUT4) translocation activators” (Bioorg Med Chem Lett, 2019).
One block for each compound: values may come before it. Activity calls are given as the source filed them. The calls are words filed in the database; no cut-off is given here.

Key:
[1] = 1-octanol/PBS distribution co-efficient, log D of the compound at pH 7.4; format: physicochemical
[2] = Stability of the compound in mouse liver microsomes assessed as parent compound remaining after 30 mins relative to control; format: ADME, Microsome; details: read-out: Stability
[3] = molecular target: T1, Solute carrier family 2, facilitated glucose transporter member 4 (Rattus norvegicus) (UniProt P19357); assay: Potency index, ratio of EC50 for 2-(4-(4-(2-methoxyphenyl)-6,7-dihydro-5H-cyclopenta[d]pyridazin-1-ylamino)phenyl)acetamide EC50 to EC50 for test compound for GLUT4 translocation activity in L6-GLUT4myc differentiated myotube cells
T1 sequence (whole entry): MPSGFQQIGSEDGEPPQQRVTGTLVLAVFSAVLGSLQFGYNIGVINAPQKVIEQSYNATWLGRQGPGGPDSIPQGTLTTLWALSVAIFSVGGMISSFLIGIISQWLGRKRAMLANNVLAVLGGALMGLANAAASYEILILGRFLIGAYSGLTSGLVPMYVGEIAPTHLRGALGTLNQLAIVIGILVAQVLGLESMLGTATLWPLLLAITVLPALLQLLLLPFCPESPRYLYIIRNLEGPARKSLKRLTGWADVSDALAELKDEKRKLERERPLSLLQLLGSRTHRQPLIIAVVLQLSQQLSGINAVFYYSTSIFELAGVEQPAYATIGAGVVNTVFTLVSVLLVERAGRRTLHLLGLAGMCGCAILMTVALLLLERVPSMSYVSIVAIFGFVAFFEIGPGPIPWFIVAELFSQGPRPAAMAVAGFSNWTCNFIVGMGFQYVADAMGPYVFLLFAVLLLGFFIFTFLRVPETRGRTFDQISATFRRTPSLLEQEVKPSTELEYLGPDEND

[4] = molecular target: T1, Solute carrier family 2, facilitated glucose transporter member 4 (Rattus norvegicus); assay: Induction of GLUT4 translocation in rat L6-GLUT4myc differentiated myotube cells at 30 uM after 20 mins by chemiluminescent method relative to 30 uM 2-(4-(4-phenylphthalazin-1-ylamino)phenyl)acetamide
[5] = molecular target: T1, Solute carrier family 2, facilitated glucose transporter member 4 (Rattus norvegicus); assay: Induction of GLUT4 translocation in rat L6-GLUT4myc differentiated myotube cells at 3 uM after 20 mins by chemiluminescent method relative to 30 uM 2-(4-(4-(2-methoxyphenyl)-6,7-dihydro-5H-cyclopenta[d]pyridazin-1-ylamino)phenyl)acetamide
[6] = test system: Mus musculus; assay: Antidiabetic activity in db/db mouse assessed as reduction in fasting plasma glucose level at 3 mg/kg, po measured up to 4 hrs; format: functional
[7] = test system: Mus musculus; assay: Antidiabetic activity in db/db mouse assessed as reduction in fasting plasma glucose level at 10 mg/kg, po measured up to 4 hrs; format: functional
[8] = test system: Mus musculus; assay: Antidiabetic activity in db/db mouse assessed as reduction in fasting plasma glucose level at 30 mg/kg, po measured up to 4 hrs; format: functional
[9] = test system: Mus musculus; assay: Antidiabetic activity in db/db mouse assessed as reduction in fasting plasma glucose AUC at 3 mg/kg, po measured up to 4 hrs; format: functional, organism-based; set-up: dose 3 mg/kg, time < 4 hr
[10] = test system: Mus musculus; assay: Antidiabetic activity in db/db mouse assessed as reduction in fasting plasma glucose AUC at 10 mg/kg, po measured up to 4 hrs; format: functional, organism-based; set-up: dose 10 mg/kg, time < 4 hr
[11] = test system: Mus musculus; assay: Antidiabetic activity in db/db mouse assessed as reduction in fasting plasma glucose AUC at 30 mg/kg, po measured up to 4 hrs; format: functional, organism-based; set-up: dose 30 mg/kg, time < 4 hr
[12] = Cmax in db/db mouse plasma at 3 mg/kg, po measured up to 4 hrs; format: ADME, organism-based; set-up: dose 3 mg/kg, route oral
[13] = Cmax in db/db mouse plasma at 10 mg/kg, po measured up to 4 hrs; format: ADME, organism-based; set-up: dose 10 mg/kg, route oral
[14] = Cmax in db/db mouse plasma at 30 mg/kg, po measured up to 4 hrs; format: ADME, organism-based; set-up: dose 30 mg/kg, route oral
[15] = AUC (0 to 4 hrs) in db/db mouse plasma at 3 mg/kg, po measured up to 4 hrs; format: ADME, organism-based; set-up: dose 3 mg/kg, time < 4 hr, route oral
[16] = AUC (0 to 4 hrs) in db/db mouse plasma at 10 mg/kg, po measured up to 4 hrs; format: ADME, organism-based; set-up: dose 10 mg/kg, time < 4 hr, route oral
[17] = AUC (0 to 4 hrs) in db/db mouse plasma at 30 mg/kg, po measured up to 4 hrs; format: ADME, organism-based; set-up: time < 4 hr, dose 30 mg/kg, route oral
[18] = test system: Mus musculus; assay: Antidiabetic activity in db/db mouse assessed as reduction in fasting plasma glucose level at 3 to 30 mg/kg, po measured up to 4 hrs; format: functional, organism-based
[19] = Cmax in db/db mouse plasma at 3 to 30 mg/kg, po measured up to 4 hrs; format: ADME, organism-based; details: in vivo
[20] = AUC (0 to 4 hrs) in db/db mouse plasma at 3 to 30 mg/kg, po measured up to 4 hrs; format: ADME, organism-based; details: in vivo
[21] = molecular target: T1, Solute carrier family 2, facilitated glucose transporter member 4 (Rattus norvegicus); assay: Induction of GLUT4 translocation in rat L6-GLUT4myc differentiated myotube cells at 3 uM after 20 mins by chemiluminescent method relative to 2-(4-(4-(2-methoxyphenyl)phthalazin-1-ylamino)phenyl)acetamide

logD [1]: 2.6 | remaining at 0.5 h [2]: 92% | Ratio EC50 [3]: 7
SMILES: COc1ccccc1-c1nnc(Nc2ccc(CC(N)=O)cc2F)c2ccsc12

fold change (FC) [4]: inactive
SMILES: CCc1c(Nc2ccc(CC(N)=O)cc2)nnc(-c2ccccc2OC)c1CC

fold change (FC) [5]: 0.46
SMILES: COc1ccccc1-c1nnc(Nc2ccc(CC(N)=O)cc2)c2occc12

fold change (FC) [4]: 2.7
SMILES: COc1ccccc1-c1nnc(Nc2ccc(CC(N)=O)cc2)c2ccccc12

fold change (FC) [4]: 3.7
SMILES: COc1ccccc1-c1nnc(Nc2ccc(CC(N)=O)cc2)c(C)c1C

fold change (FC) [5]: 0.45
SMILES: COc1ccccc1-c1nnc(Nc2ccc(CC(N)=O)cc2Cl)c2c1CCC2

logD [1]: 1.8 | remaining at 0.5 h [2]: 82%
SMILES: COCCOCCOc1ccccc1-c1nnc(Nc2ccc(CC(N)=O)cc2F)c2ccsc12

fold change (FC) [5]: 0.1
SMILES: COc1ccccc1-c1nnc(Nc2ccc(C(N)=O)cc2)c2c1CCC2

fold change (FC) [4]: 0.9
SMILES: COc1ccccc1-c1nnc(Nc2ccc(CC(N)=O)cc2)c2c1CCCC2

fold change (FC) [4]: 1.7
SMILES: CCc1ccccc1-c1nnc(Nc2ccc(CC(N)=O)cc2)c2ccccc12

fold change (FC) [5]: 0.09
SMILES: COc1ccccc1-c1nnc(Nc2ccc(CC(=O)N(C)C)cc2)c2c1CCC2

logD [1]: 2.1 | remaining at 0.5 h [2]: 66% | Cmax [12]: 3.38 µM | Cmax [13]: 4 µM | Cmax [14]: 4.38 µM | AUC(0-t) at 4 h [15]: 9.01 µM·h | AUC(0-t) at 4 h [16]: 10.6 µM·h | AUC(0-t) at 4 h [17]: 12.6 µM·h | Cmax [19]: Dose-dependent effect | AUC [20]: Dose-dependent effect
SMILES: COCCOc1ccccc1-c1nnc(Nc2ccc(CC(N)=O)cc2F)c2ccsc12
Emax [6]: 220 mg/dL | Emax [7]: 393 mg/dL | Emax [8]: 435 mg/dL | AUC [9]: 644 mg/dl.hr | AUC [10]: 1160 mg/dl.hr | AUC [11]: 1210 mg/dl.hr | Activity [18]: Dose-dependent effect

fold change (FC) [5]: 0.3
SMILES: COc1ccccc1-c1nnc(Nc2ccc(C(C)(C)C(N)=O)cc2)c2c1CCC2

logD [1]: 1.8 | remaining at 0.5 h [2]: > 100%
SMILES: NC(=O)Cc1ccc(Nc2nnc(-c3ccccc3OCC3COCCO3)c3sccc23)c(F)c1 (stereo unspecified)

fold change (FC) [5]: 0.52
SMILES: COc1ccccc1-c1nnc(Nc2ccc(CC(N)=O)cc2C)c2c1CCC2

fold change (FC) [5]: 0.37
SMILES: COc1ccccc1-c1nnc(Nc2ccc(C3(C(N)=O)CC3)cc2)c2c1CCC2

fold change (FC) [5]: 0.08
SMILES: CNC(=O)Cc1ccc(Nc2nnc(-c3ccccc3OC)c3c2CCC3)cc1

fold change (FC) [5]: inactive
SMILES: COc1ccccc1-c1nnc(Nc2ccc(CC(N)=O)cc2)c2oc(C)cc12

fold change (FC) [4]: 1.3
SMILES: Cc1cccc(-c2nnc(Nc3ccc(CC(N)=O)cc3)c3ccccc23)c1

fold change (FC) [4]: 1.6
SMILES: Cc1ccccc1-c1nnc(Nc2ccc(CC(N)=O)cc2)c2ccccc12

fold change (FC) [5]: 0.97
SMILES: COc1ccccc1-c1nnc(Nc2ccc(CC(N)=O)cc2)c2ccsc12

fold change (FC) [5]: 0.85
SMILES: COc1ccccc1-c1nnc(Nc2ccc(CC(N)=O)cc2F)c2c1CCC2

fold change (FC) [5]: 0.13
SMILES: COc1cc(CC(N)=O)ccc1Nc1nnc(-c2ccccc2OC)c2c1CCC2

fold change (FC) [5]: 0.09
SMILES: COc1ccccc1-c1nnc(Nc2ccc(CS(N)(=O)=O)cc2)c2c1CCC2

fold change (FC) [5]: inactive
SMILES: COc1ccccc1-c1nnc(Nc2ccc(CCC(N)=O)cc2)c2c1CCC2

logD [1]: 2.9 | remaining at 0.5 h [2]: 2%
SMILES: CC(C)(C)NC(=O)NCCOCCOc1ccccc1-c1nnc(Nc2ccc(CC(N)=O)cc2F)c2ccsc12

fold change (FC) [5]: 0.04
SMILES: COc1ccccc1-c1nnc(Nc2cccc(CC(N)=O)c2)c2c1CCC2

logD [1]: 2.6 | remaining at 0.5 h [2]: 79%
SMILES: NC(=O)Cc1ccc(Nc2nnc(-c3ccccc3OCc3cscn3)c3sccc23)c(F)c1

logD [1]: 2.9 | remaining at 0.5 h [2]: 19%
SMILES: NC(=O)Cc1ccc(Nc2nnc(-c3ccccc3OCc3ccccn3)c3sccc23)c(F)c1

fold change (FC) [5]: 0.33
SMILES: COc1ccccc1-c1nnc(Nc2ccc(CC(N)=O)cc2)c2ccoc12

fold change (FC) [4]: 4.7 | fold change (FC) [21]: 2 | logD [1]: 2.3 | remaining at 0.5 h [2]: 90%
SMILES: COc1ccccc1-c1nnc(Nc2ccc(CC(N)=O)cc2)c2c1CCC2

fold change (FC) [5]: 0.09
SMILES: COc1ccccc1-c1nnc(Nc2ccc(CC(N)=O)cc2O)c2c1CCC2

fold change (FC) [5]: 0.36
SMILES: COc1ccccc1-c1nnc(Nc2ccc(CC(N)=O)c(C)c2)c2c1CCC2

fold change (FC) [5]: 0.12
SMILES: COc1ccccc1-c1nnc(Nc2ccc(CC(N)=O)cc2C(F)(F)F)c2c1CCC2

fold change (FC) [4]: 1
SMILES: COc1cccc(-c2nnc(Nc3ccc(CC(N)=O)cc3)c3ccccc23)c1

logD [1]: 3.2 | remaining at 0.5 h [2]: 15%
SMILES: CC(C)(C)OC(=O)NCCOCCOc1ccccc1-c1nnc(Nc2ccc(CC(N)=O)cc2F)c2ccsc12

fold change (FC) [5]: 0.56
SMILES: COc1ccccc1-c1nnc(Nc2ccc(CC(N)=O)c(F)c2)c2c1CCC2

fold change (FC) [4]: inactive
SMILES: COc1ccc(-c2nnc(Nc3ccc(CC(N)=O)cc3)c3ccccc23)cc1

fold change (FC) [5]: 0.67
SMILES: COc1ccccc1-c1nnc(Nc2ccc(CC(N)=O)cc2)c2sccc12
